Experimental data as given in patent US20130089504A1, “Compositions Comprising Enzyme-Cleavable Hydromorphone Prodrug” (priority 2010, published 2013).

Assays:
trypsin = molecular target: T1, trypsin (Bos taurus, UniProt P00760); experiment: In vitro trypsin conversion of prodrug Compound PC-5 to hydromorphone; format: biochemical; conditions: no trypsin inhibitor
T1 construct: gene PRSS1
T1 sequence (P00760 24-246): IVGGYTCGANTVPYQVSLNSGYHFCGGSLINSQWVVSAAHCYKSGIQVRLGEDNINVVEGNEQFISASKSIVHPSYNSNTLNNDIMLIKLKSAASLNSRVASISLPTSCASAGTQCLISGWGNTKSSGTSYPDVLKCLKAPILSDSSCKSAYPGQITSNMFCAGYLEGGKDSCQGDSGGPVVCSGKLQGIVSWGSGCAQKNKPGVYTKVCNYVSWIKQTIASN
Procedure: Compound PC-5 was exposed to trypsin as described. […] A 5-minute 37° C. pre-incubation of the reaction mixture without prodrug was conducted and then the prodrug was added to initiate the incubation. The reaction was conducted at 37° C. for 24 hr.

[1] = Pharmacokinetics of hydromorphone prodrug following IV administration to rats; format: in vivo; conditions: male, Sprague Dawley; rat IV, PC-5 2 mg/kg (0.29 μmol/kg); plasma; read-out: PC-5 Cmax ± sd
[2] = In vivo tolerability of Compound PC-5 in rats (IV); conditions: rat IV
Procedure: Male naïve Sprague-Dawley rats, 4 per dose, were used in the study. Rats were weighed, and then placed under a heat lamp for 15-20 minutes to dilate the lateral tail veins. Before dosing, rats were placed in Broome restrainers and the drug was introduced into one of the tail veins using a syringe and needle. […] Blood samples were collected 5 minutes post-dose via the saphenous vein. The rats were observed up to 24 hours.

[3] = In vitro stability of Compound PC-5 to household chemicals and enzyme preparations; format: physicochemical; conditions: vodka, baking soda, WINDEX, vinegar at RT or 80° C.; GNC Super Digestive, tenderizer, subtilisn at RT; 1 or 24 hr
Procedure: Samples were incubated as described. Aliquots were removed at 1 hr and 24 hr and stabilized by transferring each to a solution of 50% or 100% phosphoric acid to achieve a final pH of less than or equal to pH 4. The stabilized aliquots were then diluted 4- to 6-fold with water, vortex-mixed and applied to HPLC.
The percentage of Compound PC-5 remaining after exposure is indicated by the solid black bars and percentage conversion of Compound PC-5 to hydromorphone is indicated by the lightly shaded bars with a black outline.

CCN(CCNC(=O)[C@H](CCCCN)NC(=O)CC(=O)O)C(=O)Oc1ccc2c3c1O[C@H]1C(=O)CCC4[C@@H](C2)N(C)CC[C@@]341 (stereo partly drawn) [Compound PC-5, [2-((S)-2-malonylamino-6-amino-hexanoylamino)-ethyl]-ethyl-carbamic acid hydromorphone ester]
trypsin-mediated release of hydromorphone (trypsin; in vitro): trypsin can mediate release hydromorphone | Rate of HM formation, Average ± sd (trypsin; 0.761 mM prodrug, 0.02 to 0.0228 mg/ml trypsin, Tris pH 8, 37° C.): 106 ± 2 umols/h/umol trypsin | half-life at 0.761 mM (trypsin; 0.761 mM prodrug, 0.02 to 0.0228 mg/ml trypsin, Tris pH 8, 37° C., read-out: Prodrug trypsin half-life, Average ± sd (converted)): 2.81 ± 0.23 h | Cmax [1]: 3090 ± 360 ng/mL | dose rats can tolerate [2]: 9.7 µmol/kg | Clinical observations ([2]; 33 mg/kg ([…]), observed up to 24 hours): Normal | conversion of Compound PC-5 to hydromorphone [3]: less than 10%
